The NIST ThermoML archive (doi:10.1016/j.jct.2009.09.003)
Where “and” joins values, the source holds several entries; their conditions need not be identical. Equal values may be shown once. Numbers after ± are expanded uncertainties.

Conditions: Liquid, Transpiration

NCCNCCNCCN [1,2-ethanediamine, N,N'-bis(2-aminoethyl)-]
Conditions	vapor or sublimation pressure
338.2 K	0.00866 ± 0.0017 kPa
340.7 K	0.01059 ± 0.0021 kPa
343.5 K	0.0135 ± 0.0027 kPa
346.3 K	0.01645 ± 0.0033 kPa
347.2 K	0.01792 ± 0.0036 kPa
348.2 K	0.01944 ± 0.0039 kPa
349.4 K	0.0209 ± 0.0042 kPa
350.1 K	0.022 ± 0.0044 kPa
350.2 K	0.02259 ± 0.0045 kPa
352.4 K	0.02695 ± 0.0054 kPa
353.2 K	0.02857 ± 0.0057 kPa
355.2 K	0.03317 ± 0.0066 kPa
355.4 K	0.03445 ± 0.0069 kPa
356.2 K	0.03575 ± 0.0072 kPa
358.5 K	0.04226 ± 0.0085 kPa
359.2 K	0.04519 ± 0.0091 kPa
361.2 K	0.05252 ± 0.011 kPa
363.2 K	0.05873 ± 0.012 kPa
364.2 K	0.0654 ± 0.013 kPa
365.4 K	0.06908 ± 0.014 kPa
367.4 K	0.07992 ± 0.016 kPa
368.1 K	0.08563 ± 0.017 kPa and 0.08484 ± 0.017 kPa
370.2 K	0.09747 ± 0.02 kPa
370.4 K	0.09756 ± 0.02 kPa
371 K	0.1008 ± 0.02 kPa
373.3 K	0.1176 ± 0.024 kPa

CN1CCN(C)CC1 [1,4-dimethylpiperazine]
Conditions	vapor or sublimation pressure [kPa]
268.1 K	0.2307 ± 0.046
270.3 K	0.2719 ± 0.054
274.1 K	0.3511 ± 0.07
274.8 K	0.3656 ± 0.073
278.5 K	0.486 ± 0.097
280.1 K	0.5177 ± 0.1
283.6 K	0.6602 ± 0.13
286.1 K	0.7611 ± 0.15
288.5 K	0.8272 ± 0.17
291.1 K	0.9973 ± 0.2
293.6 K	1.116 ± 0.22
296.1 K	1.359 ± 0.27
298.5 K	1.561 ± 0.31
301.1 K	1.834 ± 0.37
303.4 K	2.102 ± 0.42
306.1 K	2.518 ± 0.5
308.5 K	2.6 ± 0.52
311.1 K	3.202 ± 0.64

CN1CCN(CCN)CC1 [1-(2-aminoethyl)-4-methyl-piperazine]
Conditions	vapor or sublimation pressure
297.8 K	0.0246 ± 0.0049 kPa
298.8 K	0.0265 ± 0.0053 kPa
302 K	0.0341 ± 0.0069 kPa
302.7 K	0.0368 ± 0.0074 kPa
304.6 K	0.0433 ± 0.0087 kPa
307.2 K	0.0548 ± 0.011 kPa and 0.0538 ± 0.011 kPa
310.5 K	0.0691 ± 0.014 kPa
311.6 K	0.0765 ± 0.015 kPa
313.2 K	0.085 ± 0.017 kPa
314.3 K	0.0925 ± 0.018 kPa
315.9 K	0.1026 ± 0.021 kPa
317.1 K	0.1153 ± 0.023 kPa
320.2 K	0.1434 ± 0.029 kPa
323.7 K	0.1872 ± 0.037 kPa
327.7 K	0.2497 ± 0.05 kPa
331.8 K	0.3218 ± 0.065 kPa

NCCN1CCNCC1 [N-(β-aminoethyl)piperazine)]
Conditions	vapor or sublimation pressure
295.7 K	0.0064 ± 0.0013 kPa
297.7 K	0.0079 ± 0.0016 kPa
300.4 K	0.0096 ± 0.0019 kPa
303.3 K	0.0127 ± 0.0026 kPa and 0.0131 ± 0.0026 kPa
304.7 K	0.0144 ± 0.0029 kPa
305.6 K	0.015 ± 0.003 kPa
308.2 K	0.0193 ± 0.0039 kPa
310.2 K	0.0227 ± 0.0046 kPa
312.6 K	0.028 ± 0.0056 kPa
314.6 K	0.0333 ± 0.0067 kPa
317.5 K	0.0414 ± 0.0083 kPa
320.7 K	0.0534 ± 0.011 kPa
323.1 K	0.0653 ± 0.013 kPa
326.4 K	0.0835 ± 0.017 kPa
328.2 K	0.0943 ± 0.019 kPa
330.5 K	0.1135 ± 0.023 kPa
330.7 K	0.1203 ± 0.024 kPa
333.1 K	0.1411 ± 0.028 kPa
333.2 K	0.134 ± 0.027 kPa
335.2 K	0.1628 ± 0.033 kPa
338.1 K	0.1943 ± 0.039 kPa
